Measurements as given in US8829007B2 (priority 2009, dated 2014).

tested on: influenza A virus (A/PR/8/34); test: microbe, parasite or virus in culture; format: cell-based; details: Influenza A virus, PR/8, MDCK, MDCK cells infected with A/PR/8/34; survival of infected cells; class symbols; read-out: IC50 (mean all)

| Compound | IC50 [µM] |
| --- | --- |
| CC(C)CC(=O)N1CCC[C@H](CNc2ccnc(-c3c[nH]c4ncc(Cl)cc34)n2)C1 [Compound 494, (R)-1-(3-((2-(5-chloro-1H-pyrrolo[2,3-b]pyridin-3-yl)pyrimidin-4-ylamino)methyl)piperidin-1-yl)-3-methylbutan-1-one] | 5 to 20 |
| CS(=O)(=O)N1CCCC(Nc2nc(-c3c[nH]c4ncc(Cl)cc34)ncc2F)CC1 (centres unmarked) [Compound 496, N-(2-(5-chloro-1H-pyrrolo[2,3-b]pyridin-3-yl)-5-fluoropyrimidin-4-yl)-1-(methylsulfonyl)azepan-4-amine] | 5 to 20 |
| COC(=O)N1CCCC(Nc2nc(-c3c[nH]c4ncc(Cl)cc34)ncc2F)CC1 (centres unmarked) [Compound 498, methyl 4-(2-(5-chloro-1H-pyrrolo[2,3-b]pyridin-3-yl)-5-fluoropyrimidin-4-ylamino)azepane-1-carboxylate] | < 5 |
| O=C1NCCCC[C@@H]1Nc1ccnc(-c2c[nH]c3ncc(F)cc23)n1 [Compound 501] | 5 to 20 |
| O=C1CC[C@H](CNc2nc(-c3c[nH]c4ncc(Cl)cc34)ncc2F)N1 [Compound 503] | < 5 |
| CC(C)(C)OC(=O)N1CCOCC1CNc1nc(-c2c[nH]c3ncc(Cl)cc23)ncc1F (centres unmarked) [Compound 515, Tert-Butyl 3-((2-(5-chloro-1H-pyrrolo[2,3-b]pyridin-3-yl)-5-fluoropyrimidin-4-ylamino)methyl)morpholine-4-carboxylate] | > 20 |
| CCC(=O)N1CCOCC1CNc1nc(-c2c[nH]c3ncc(Cl)cc23)ncc1F (centres unmarked) [Compound 516, 1-(3-((2-(5-chloro-1H-pyrrolo[2,3-b]pyridin-3-yl)-5-fluoropyrimidin-4-ylamino)methyl)morpholino)propan-1-one] | 5 to 20 |
| CCCNC(=O)N1CCOCC1CNc1nc(-c2c[nH]c3ncc(Cl)cc23)ncc1F (centres unmarked) [Compound 517, 3-((2-(5-chloro-1H-pyrrolo[2,3-b]pyridin-3-yl)-5-fluoropyrimidin-4-ylamino)methyl)-N-propylmorpholine-4-carboxamide] | 5 to 20 |
| CCN(CC)C(=O)[C@@H]1CCCC[C@@H]1Nc1nc(-c2c[nH]c3ncc(Cl)cc23)ncc1F [Compound 518, (1R,2S)-2-(2-(5-chloro-1H-pyrrolo[2,3-b]pyridin-3-yl)-5-fluoropyrimidin-4-ylamino)-N,N-diethylcyclohexanecarboxamide] | > 20 |
| CCNC(=O)[C@@H]1CCCC[C@@H]1Nc1nc(-c2c[nH]c3ncc(Cl)cc23)ncc1F [Compound 519, (1R,2S)-2-(2-(5-chloro-1H-pyrrolo[2,3-b]pyridin-3-yl)-5-fluoropyrimidin-4-ylamino)-N-ethylcyclohexanecarboxamide] | 5 to 20 |
| CCN(CC)C(=O)[C@H]1CCCC[C@@H]1Nc1nc(-c2c[nH]c3ncc(Cl)cc23)ncc1F [Compound 520] | > 20 |
| CCNC(=O)[C@H]1CCCC[C@@H]1Nc1nc(-c2c[nH]c3ncc(Cl)cc23)ncc1F [Compound 521, (1S,2S)-2-(2-(5-chloro-1H-pyrrolo[2,3-b]pyridin-3-yl)-5-fluoropyrimidin-4-ylamino)-N-ethylcyclohexanecarboxamide] | 5 to 20 |
| CN(C)[C@H]1CCCC[C@@H]1Nc1nc(-c2c[nH]c3ncc(Cl)cc23)ncc1F [Compound 523, (1S,2S)—N1-(2-(5-chloro-1H-pyrrolo[2,3-b]pyridin-3-yl)-5-fluoropyrimidin-4-yl)-N2,N2-dimethylcyclohexane-1,2-diamine] | > 20 |

same assay, conditions: MDCK cells infected with A/PR/8/34; survival of infected cells; class symbols; read-out: IC50 (mean all)

| Compound | IC50 [µM] |
| --- | --- |
| CS(=O)(=O)N1CC(Nc2nc(-c3c[nH]c4ncc(Cl)cc34)ncc2F)C1 [Compound 508] | > 20 |
| NC1CCCC(Nc2ccnc(-c3c[nH]c4ncc(Cl)cc34)n2)C1 (centres unmarked) [Compound 510] | > 20 |

same assay, conditions: read-out: IC50

| Compound | IC50 [µM] |
| --- | --- |
| COP(=O)(OC)[C@@]1(O)CCC[C@H](Nc2nc(-c3c[nH]c4ncc(Cl)cc34)ncc2F)C1 [Compound 741] | < 5 |
| COP(=O)(OC)[C@]1(O)CCC[C@H](Nc2nc(-c3c[nH]c4ncc(Cl)cc34)ncc2F)C1 [Compound 742] | < 5 |

same assay, conditions: read-out: IC50 (mean all)

| Compound | IC50 [µM] |
| --- | --- |
| (R)-ethyl 3-((2-(5-chloro-1H-pyrrolo[2,3-b]pyridin-3-yl)pyrimidin-4-ylamino)methyl)piperidine-1-carboxylate [Compound 495] | 5 to 20 |
| (S)-6-(2-(5-chloro-1H-pyrrolo[2,3-b]pyridin-3-yl)-5-fluoropyrimidin-4-ylamino)-4-(4-methoxybenzyl)-1,4-oxazepan-2-one [Compound 505] | 5 to 20 |

tested on: A/PR/8/34 influenza virus; test: microbe, parasite or virus in culture; format: cell-based; details: Influenza A virus, PR/8, MDCK, MDCK cells infected with A/PR/8/34, bDNA viral RNA; read-out: EC50 (mean all)

| Compound | EC50 [µM] |
| --- | --- |
| Fc1cnc(-c2c[nH]c3ncc(Cl)cc23)nc1N[C@H]1CCCN(CC(F)F)C1 [Compound 1, (S)-2-(5-chloro-1H-pyrrolo[2,3-b]pyridin-3-yl)-N-(1-(2,2-difluoroethyl)piperidin-3-yl)-5-fluoropyrimidin-4-amine] | < 5 |

same assay, conditions: Influenza A virus, PR/8, MDCK, MDCK cells infected with A/PR/8/34; replication of influenza virus (viral RNA, bDNA); class symbols; read-out: EC50 (mean all)

| Compound | EC50 [µM] |
| --- | --- |
| CS(=O)(=O)N[C@@H]1CCCC[C@H]1CNc1nc(-c2c[nH]c3ncc(Cl)cc23)ncc1F (relative stereo) [Compound 557, N-(trans-2-((2-(5-chloro-1H-pyrrolo[2,3-b]pyridin-3-yl)-5-fluoropyrimidin-4-ylamino)methyl)cyclohexyl)methanesulfonamide] | < 5 |
| C[C@@]1(C(=O)O)CCCC[C@H]1Nc1nc(-c2c[nH]c3ncc(Cl)cc23)ncc1F (stereo in doubt) [Compound 582, Trans-2-(2-(5-chloro-1H-pyrrolo[2,3-b]pyridin-3-yl)-5-fluoropyrimidin-4-ylamino)-1-methylcyclohexanecarboxylic acid] | < 5 |
| CC(C)(O)CN1CCC[C@H](Nc2nc(-c3c[nH]c4ncc(Cl)cc34)ncc2F)C1 [Compound 546] | < 5 |
| COC(=O)N[C@H]1CCC[C@@H](Nc2nc(-c3c[nH]c4ncc(Cl)cc34)ncc2F)C1 [Compound 548, Methyl N-[(1S,3R)-3-[[2-(5-chloro-1H-pyrrolo[2,3-b]pyridin-3-yl)-5-fluoro-pyrimidin-4-yl]amino]cyclohexyl]carbamate] | < 5 |
| CN(C)C(=O)N[C@H]1CCC[C@@H](Nc2nc(-c3c[nH]c4ncc(Cl)cc34)ncc2F)C1 [Compound 549, 3-[(1S,3R)-3-[[2-(5-chloro-1H-pyrrolo[2,3-b]pyridin-3-yl)-5-fluoro-pyrimidin-4-yl]amino]cyclohexyl]-1,1-dimethyl-urea] | < 5 |
| COCC(O)CN1CC[C@H](C)[C@H](Nc2nc(-c3c[nH]c4ncc(Cl)cc34)ncc2F)C1 (some centres unmarked) [Compound 550] | < 5 |
| CC(C)OCC(O)CN1CCCC(Nc2nc(-c3c[nH]c4ncc(Cl)cc34)ncc2F)C1 [Compound 551, 1-((S)-3-((2-(5-chloro-1H-pyrrolo[2,3-b]pyridin-3-yl)-5-fluoropyrimidin-4-ylamino)piperidin-1-yl)-3-isopropoxypropan-2-ol] | < 5 |
| COC1CCC[C@H](Nc2nc(-c3c[nH]c4ncc(Cl)cc34)ncc2F)C1 (stereo partly drawn) [Compound 552, 2-(5-chloro-1H-pyrrolo[2,3-b]pyridin-3-yl)-5-fluoro-N-((1S)-3-methoxycyclohexyl)pyrimidin-4-amine] | < 5 |
| CC(C(=O)O)N1CCCC(Nc2nc(-c3c[nH]c4ncc(Cl)cc34)ncc2F)C1 [Compound 573, 2-((S)-3-((2-(5-chloro-1H-pyrrolo[2,3-b]pyridin-3-yl)-5-fluoropyrimidin-4-ylamino)piperidin-1-yl)propanoic acid] | < 5 |
| COCCOC(=O)[C@H]1CCCC[C@@H]1Nc1nc(-c2c[nH]c3ncc(Cl)cc23)ncc1F [Compound 574, (1S,2S)-2-methoxyethyl 2-(2-(5-chloro-1H-pyrrolo[2,3-b]pyridin-3-yl)-5-fluoropyrimidin-4-ylamino)cyclohexanecarboxylate] | < 5 |
| COC(=O)[C@H]1CCCC[C@@H]1Nc1nc(-c2c[nH]c3ncc(Cl)cc23)ncc1F [Compound 575, (1S,2S)-methyl 2-(2-(5-chloro-1H-pyrrolo[2,3-b]pyridin-3-yl)-5-fluoropyrimidin-4-ylamino)cyclohexanecarboxylate] | < 5 |
| CC(=O)N[C@@H]1CCC[C@H](Nc2nc(-c3c[nH]c4ncc(Cl)cc34)ncc2F)C1 [Compound 576, N-[(1R,3S)-3-[[2-(5-chloro-1H-pyrrolo[2,3-b]pyridin-3-yl)-5-fluoro-pyrimidin-4-yl]amino]cyclohexyl]acetamide] | < 5 |
| O=C(O)CN1CCC[C@H](Nc2nc(-c3c[nH]c4ncc(Cl)cc34)ncc2F)C1 [Compound 577] | < 5 |
| O=C(O)[C@H]1CCCC[C@H]1Nc1nc(-c2c[nH]c3ncc(Cl)cc23)ncc1F [Compound 579, (1S,2R)-2-(2-(5-chloro-1H-pyrrolo[2,3-b]pyridin-3-yl)-5-fluoropyrimidin-4-ylamino)cyclohexanecarboxylic acid] | < 5 |

same assay, conditions: Influenza A virus, PR/8, mean all; replication of A/PR/8/34 influenza virus (bDNA assay); read-out: EC50

| Compound | EC50 [µM] |
| --- | --- |
| C[C@]1(C(=O)O)CCC[C@H](Nc2nc(-c3c[nH]c4ncc(Cl)cc34)ncc2F)[C@H]1O (single isomer, unassigned) [Compound 928] | < 5 |

same assay, conditions: MDCK cells infected with A/PR/8/34; replication of influenza virus (viral RNA, bDNA); class symbols; read-out: EC50 (mean all)

| Compound | EC50 [µM] |
| --- | --- |
| CC(=O)N[C@@H]1CCC[C@H](Nc2nc(-c3c[nH]c4ncc(Cl)cc34)ncc2F)C1 [Compound 547, N-[(1R,3S)-3-[[2-(5-chloro-1H-pyrrolo[2,3-b]pyridin-3-yl)-5-fluoro-pyrimidin-4-yl]amino]cyclohexyl]acetamide] | < 5 |
| CC1(O)CCCCCC1Nc1nc(-c2c[nH]c3ncc(Cl)cc23)ncc1F (centres unmarked) [Compound 581] | < 5 |

same assay, conditions: […]; replication of influenza virus (viral RNA, bDNA); class symbols; read-out: EC50 (mean all)

| Compound | EC50 [µM] |
| --- | --- |
| CC[C@]1(C(=O)O)CCCC[C@H]1Nc1nc(-c2c[nH]c3ncc(Cl)cc23)ncc1F (relative stereo) [Compound 585, cis-2-(2-(5-chloro-1H-pyrrolo[2,3-b]pyridin-3-yl)-5-fluoropyrimidin-4-ylamino)-1-ethylcyclohexanecarboxylic acid] | < 5 |
